Several values for one entry are separate records, joined by “and”; a condition that tells them apart may be missing. Equal entries are not always repeated.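 Briefly, cells in 96-well plates were exposed to five compound concentrations for 48 h, and endpoints were estimated by linear interpolation. GI50 marks 50% less growth. The concentration for full growth arrest is given as TGI.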
Tests used:
Experiment in all cases: NCI anticancer screen, dose series, 48 h; in the data active means GI50 below about 0.43 µM; inactive means the rest
[1] = system: HL-60(TB) leukemia
[2] = system: CCRF-CEM leukemia
[3] = system: PC-3 prostate
[4] = system: UACC-257 melanoma
[5] = system: HOP-92 NSCLC
[6] = system: OVCAR-8 ovarian
[7] = system: BT-549 breast
[8] = system: NCI/ADR-RES ovarian
[9] = system: SK-MEL-28 melanoma
[10] = system: A498 renal
[11] = system: HOP-62 NSCLC
[12] = system: NCI-H460 lung
[13] = system: HCC-2998 colon
[14] = system: MDA-MB-231 breast
[15] = system: SK-MEL-5 melanoma
[16] = system: HT29 colon
[17] = system: SF-295 CNS
[18] = system: ACHN renal
[19] = system: NCI-H23 lung
[20] = system: 786-0 renal
[21] = system: RXF 393 renal
[22] = system: SK-OV-3 ovarian
[23] = system: UACC-62 melanoma
[24] = system: SW-620 colon
[25] = system: SR leukemia
[26] = system: OVCAR-3 ovarian
[27] = system: U251 CNS
[28] = system: HCT-116 colon
[29] = system: M14 melanoma
[30] = system: OVCAR-4 ovarian
[31] = system: MCF7 breast
[32] = system: MALME-3M melanoma
[33] = system: RPMI-8226 leukemia
[34] = system: LOX IMVI melanoma
[35] = system: HCT-15 colon
[36] = system: HS 578T breast
[37] = system: EKVX NSCLC
[38] = system: UO-31 renal
[39] = system: KM12 colon
[40] = system: K-562 leukemia
[41] = system: DU-145 prostate
[42] = system: TK-10 renal
[43] = system: OVCAR-5 ovarian
[44] = system: SF-268 CNS
[45] = system: SN12C renal
[46] = system: MOLT-4 leukemia
[47] = system: IGROV1 ovarian
[48] = system: A549 NSCLC
[49] = system: SNB-75 CNS
[50] = system: COLO 205 colon
[51] = system: NCI-H522 lung
[52] = system: SNB-19 CNS
[53] = system: NCI-H226 lung
[54] = system: T-47D breast
[55] = system: SK-MEL-2 melanoma
[56] = system: MDA-MB-435
[57] = system: CAKI-1 renal
[58] = system: SF-539 CNS

Cc1cc(S(=O)(=O)[O-])ccc1-n1nc(C)[c-](N=Nc2cc(S(=O)(=O)[O-])ccc2C(=O)[O-])c1=O.[Cr+3].[Na+].[OH-] (configuration not stated)
inactive: GI50 [1] 28.3 µM | GI50 [2] 468 nM

COC(=O)CC[C@H](Cc1ccccc1)NC(=O)c1csc([C@@H](C[C@H](C(C)C)N(C)C(=O)[C@@H](NC(=O)[C@H]2CCCCN2C)C(C)C)OC(C)=O)n1
137 nM: TGI [7]
> 8.5 µM: TGI [25]
> 25 µM: TGI [3] | TGI [4] | TGI [6] | TGI [8] | TGI [9] | TGI [11] | TGI [12] | TGI [14] | TGI [17] | TGI [19] | TGI [20] | TGI [21] | TGI [23] | TGI [24] | TGI [26] | TGI [27] | TGI [28] | TGI [30] | TGI [2] | TGI [31] | TGI [32] | TGI [33] | TGI [34] | TGI [35] | TGI [36] | TGI [37] | TGI [38] | TGI [39] | TGI [40] | TGI [42] | TGI [43] | TGI [45] | TGI [47] | TGI [48] | TGI [49]
> 25000 nM: TGI [5] | TGI [13] | TGI [16] | TGI [22] | TGI [29] | TGI [41] | TGI [44]
active: GI50 [3] < 2.5 nM | GI50 [6] 3.18 nM | GI50 [7] 2.75 nM | GI50 [8] 71.4 nM | GI50 [10] 4.06 nM | GI50 [11] < 2.5 nM | GI50 [12] < 2.5 nM | GI50 [13] 3.86 nM | GI50 [14] 5.7 nM | GI50 [15] < 2.5 nM | GI50 [16] < 2.5 nM | GI50 [17] < 2.5 nM | GI50 [18] 13 nM | GI50 [19] 5.15 nM | GI50 [20] < 2.5 nM | GI50 [21] < 2.5 nM | GI50 [22] < 2.5 nM | GI50 [23] < 2.5 nM | GI50 [24] < 2.5 nM | GI50 [25] < 2.5 nM | GI50 [26] < 2.5 nM | GI50 [27] < 2.5 nM | GI50 [28] < 2.5 nM | GI50 [29] < 2.5 nM | GI50 [30] 0.023 µM | GI50 [2] 2.89 nM | GI50 [31] < 2.5 nM | GI50 [33] < 2.5 nM | GI50 [34] < 2.5 nM | GI50 [35] 6.85 nM | GI50 [36] < 2.5 nM | GI50 [37] 8.01 nM | GI50 [38] 16.5 nM | GI50 [39] < 2.5 nM | GI50 [40] < 2.5 nM | GI50 [41] < 2.5 nM | GI50 [43] 8.16 nM | GI50 [44] 7.85 nM | GI50 [45] < 2.5 nM | GI50 [46] < 2.5 nM | GI50 [47] 3.31 nM | GI50 [48] 7.44 nM | GI50 [49] < 2.5 nM
10.5 µM: TGI [46]
21.4 µM: TGI [18]
inactive: GI50 [4] > 25 µM | GI50 [5] 4.93 µM | GI50 [9] > 25 µM | GI50 [32] 7.53 µM | GI50 [42] > 25 µM
98.4 nM: TGI [15]

CC(=O)Nc1ccc(/C=C/C(=O)N2CC(CCl)c3c2cc(N)c2ccccc32)cc1 (configuration not stated)
135 nM: TGI [41]
32.6 nM and 21.8 nM: TGI [7]
5.56 µM: TGI [26]
36.2 nM: TGI [50]
0.00756 µM: TGI [32]
26.9 nM and 111 nM: TGI [52]
42.7 nM and 129 nM: TGI [13]
0.0145 µM: TGI [11]
20.8 nM: TGI [44]
0.097 µM: TGI [34]
5.89 nM: TGI [15]
0.0576 µM: TGI [37]
0.14 µM: TGI [28]
0.0741 µM: TGI [6]
7.95 nM: TGI [29]
50 µM: TGI [25] | TGI [2] | TGI [33] | TGI [35] | TGI [40] | TGI [46]
38.5 µM: TGI [17]
50 µM and > 100 µM: TGI [31] | TGI [39]
9.89 nM: TGI [5]
9.18 µM: TGI [30]
0.0124 µM: TGI [20]
0.509 µM: TGI [24]
0.614 µM: TGI [47]
0.0072 µM: TGI [45]
6.71 nM: TGI [51]
18.7 µM: TGI [42]
38.4 nM: TGI [16]
29.2 nM: TGI [53]
6.09 nM: TGI [10]
573 nM and 300 nM: TGI [22]

CCCC(=O)OC1C(CO)OC(n2cc(F)c(=O)[nH]c2=O)C1F (configuration not stated)
> 100000 nM: TGI [50] | TGI [51] | TGI [5] | TGI [7] | TGI [10] | TGI [15] | TGI [16] | TGI [22] | TGI [41] | TGI [53]
> 100 µM: TGI [54] | TGI [3] | TGI [4] | TGI [6] | TGI [8] | TGI [9] | TGI [55] | TGI [11] | TGI [1] | TGI [17] | TGI [18] | TGI [19] | TGI [20] | TGI [21] | TGI [23] | TGI [24] | TGI [25] | TGI [26] | TGI [56] | TGI [28] | TGI [30] | TGI [2] | TGI [31] | TGI [32] | TGI [33] | TGI [34] | TGI [35] | TGI [36] | TGI [57] | TGI [37] | TGI [58] | TGI [38] | TGI [39] | TGI [42] | TGI [43] | TGI [45] | TGI [46] | TGI [47] | TGI [48] | TGI [49]

C/C(=C\c1csc(C)n1)[C@@H]1C[C@@H]2O[C@]2(C)CCC[C@H](C)[C@H](O)[C@@H](C)C(=O)C(C)(C)[C@@H](O)CC(=O)O1
44.8 µM: TGI [42]
16.1 µM: TGI [24]
0.139 nM: TGI [41]
> 100000 nM: TGI [52]
0.00418 µM: TGI [21]
0.00447 µM: TGI [35]
0.274 µM: TGI [40]
inactive: GI50 [30] 60.1 µM
26.3 nM: TGI [5]
0.0112 µM: TGI [31]
< 0.0001 µM: TGI [1] | TGI [17] | TGI [25] | TGI [58] | TGI [49]
33.7 µM: TGI [55]
< 0.1 nM: TGI [50] | TGI [51] | TGI [13] | TGI [16]
> 100 µM: TGI [54] | TGI [3] | TGI [12] | TGI [18] | TGI [20] | TGI [28] | TGI [30] | TGI [32] | TGI [37] | TGI [43] | TGI [45] | TGI [47] | TGI [48]
116 nM: TGI [10]
